Source: PMC11873045, “Phytochemical profiling and various biological activities of Phlomis tuberosa L” (Scientific Reports, 2025)

Key:
α-glucosidase = α-glucosidase inhibition (PNPG); assay type: biochemical, Saccharomyces cerevisiae; details: at 200 µg/mL
Protocol: 50 µL of phosphate buffer (0.01 M pH 6.9), 10 µL of sample solution, 50 µL of α-glucosidase from Saccharomyces cerevisiae in phosphate buffer (0.01 M pH 6.0) and 25 µL of PNPG (4-N-nitrophenyl-α-d-glucopyranoside) in phosphate buffer (0.01 M pH 6.9) were mixed in a 96-well microplate. Then the solution was incubated for 20 min at 37 °C.

α-amylase = target: T1, α-amylase (Sus scrofa, UniProt P00690); test: α-amylase inhibition (starch-iodine method); assay type: biochemical, porcine
T1 construct: host or cells: porcine pancreas
T1 sequence (P00690 16-511): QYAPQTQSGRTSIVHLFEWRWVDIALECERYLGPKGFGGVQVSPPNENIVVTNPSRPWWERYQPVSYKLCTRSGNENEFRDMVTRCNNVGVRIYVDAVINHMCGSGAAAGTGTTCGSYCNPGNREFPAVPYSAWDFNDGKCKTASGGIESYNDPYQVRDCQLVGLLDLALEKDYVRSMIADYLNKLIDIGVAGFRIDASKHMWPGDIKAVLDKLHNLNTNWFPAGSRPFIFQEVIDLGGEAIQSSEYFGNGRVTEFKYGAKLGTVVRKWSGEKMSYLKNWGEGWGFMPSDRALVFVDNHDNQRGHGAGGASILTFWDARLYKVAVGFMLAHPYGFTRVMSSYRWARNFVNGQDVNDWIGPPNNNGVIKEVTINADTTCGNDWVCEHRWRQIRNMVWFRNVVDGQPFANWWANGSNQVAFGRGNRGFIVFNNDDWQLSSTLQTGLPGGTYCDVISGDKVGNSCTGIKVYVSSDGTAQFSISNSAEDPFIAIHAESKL
Protocol: The α-amylase inhibitory activity was evaluated by using starch-iodine method[30]. The enzyme α-amylase from porcine pancreas was used and enzyme solution was prepared with phosphate buffer (20 mM pH = 6.9 phosphate buffer prepared with 6 mM NaCl). Then, 50 µL of α-amylase and 25 µL of sample solutions were mixed in a 96-well microplate. The mixture was pre-incubated for 10 min at 37 °C. Then, 50 µL of starch solution (0.05%) was added and incubated for 10 min at 37 °C. Following incubation, the reaction was completed by adding HCl (0.1 M, 25 µL) and Lugol (100 µL) solutions, and the absorbance was recorded at 565 nm.
(§1) IC50 values were calculated using a graph plotted between concentration (µg/mL) and percentage inhibition (%).

[1] = β-carotene-linoleic acid assay (inhibition of lipid peroxidation); details: for β-Carotene-linoleic acid assay Inhibition (%): at 200 µg/mL
Protocol: (§2) Antioxidant activities of all extracts were assessed by using different methods including β-carotene-linoleic acid assay, DPPH assay, ABTS assay, CUPRAC assay and Metal chelating assay. […] The DPPH assay was performed by using a spectrophotometer according to typical methods documented previously[23]. The ABTS^+assay was carried out as described previously by Re et al., (1999)[24]. The cupric reducing antioxidant capacity (CUPRAC) was evaluated by following the method published Apak et al., (2004)[25]. α-tocopherol and butylated hydroxy anisole (BHA) were used as antioxidant standards to compare the β-carotene-linoleic acid, DPPH, ABTS and CUPRAC assays. The metal chelating assay of extracts for Fe^+2 was performed by using a spectrophotometer as the method reported by Tel et al., (2012)[26]. Ethylenediaminetetraacetic acid (EDTA) was used as a standard.
(§3) IC50 values were calculated using a graph plotted between concentration (µg/mL) and percentage inhibition (%). A graph that plotted absorbance against concentration (µg/mL) was used to determine A0.50 values.

[2] = ABTS cation radical scavenging assay; details: for ABTS assay Inhibition (%): at 200 µg/mL
Protocol: as §2, §3

[3] = CUPRAC (cupric reducing antioxidant capacity) assay; details: for CUPRAC assay Absorbance: at 200 µg/mL; for CUPRAC assay A0.50: concentration giving absorbance of 0.50
Protocol: as §2, §3

[4] = DPPH free radical scavenging assay; details: for DPPH assay Inhibition (%): at 200 µg/mL
Protocol: as §2, §3

BChE = target: T2, BChE (Equus caballus, UniProt P81908); test: Butyrylcholinesterase inhibition (DTNB spectrophotometric); assay type: biochemical, horse
T2 construct: host or cells: equine serum
Protocol: The inhibitory activities of acetylcholinesterase and butyrylcholinesterase enzymes of the extracts were determined using spectrophotometer following the protocol described by Deveci et al., (2019) with slight modifications[27]. Acetylthiocholine iodide and butyrylthiocholine chloride were utilized as reaction substrates, while AChE from electric eels and BChE from horse serum were applied. Employing DTNB (5,5′-Dithio-bis(2-nitrobenzoic) acid), the cholinesterase activity was measured. In a nutshell, 130 µL of 100 mM sodium phosphate buffer (pH 8.0), 10 µL of sample solution at different concentrations, and 20 µL of enzyme (AChE or BChE) solution in buffer were mixed and incubated for 15 min at 25 °C, and 20 µL of 0.5 mM DTNB was added. Following that, 0.71 mM, 20 µL of acetylthiocholine iodide or 0.2 mM, 20 µL of butyrylthiocholine chloride were added to initiate the reaction. Utilizing a 96-well microplate reader, the hydrolysis of these substrates was observed spectrophotometrically by the formation of a yellow 5-thio-2-nitrobenzoate anion at a wavelength of 412 nm.
as §3

tyrosinase = test: Tyrosinase inhibition (L-DOPA substrate); assay type: biochemical; details: at 200 µg/mL
Protocol: Tyrosinase enzyme inhibitory activity was measured by the spectrophotometric method as described by Masuda et al., (2005)[29]. L-DOPA was utilized as substrate of the reaction. 150 µL of sodium phosphate buffer (pH 6.8, 100 mM), 10 µL of sample and 20 µL of tyrosinase enzyme solution in buffer were mixed and incubated for 10 min at 37 °C. Following incubation, 20 µL of L-DOPA was added. The absorbances in a 96-well microplate were monitored at 475 nm after 10 min of incubation at 37 °C.
as §1

urease = urease (Canavalia ensiformis, UniProt P07374); assay type: biochemical, jack bean
Sequence of urease (P07374 whole entry, looked up): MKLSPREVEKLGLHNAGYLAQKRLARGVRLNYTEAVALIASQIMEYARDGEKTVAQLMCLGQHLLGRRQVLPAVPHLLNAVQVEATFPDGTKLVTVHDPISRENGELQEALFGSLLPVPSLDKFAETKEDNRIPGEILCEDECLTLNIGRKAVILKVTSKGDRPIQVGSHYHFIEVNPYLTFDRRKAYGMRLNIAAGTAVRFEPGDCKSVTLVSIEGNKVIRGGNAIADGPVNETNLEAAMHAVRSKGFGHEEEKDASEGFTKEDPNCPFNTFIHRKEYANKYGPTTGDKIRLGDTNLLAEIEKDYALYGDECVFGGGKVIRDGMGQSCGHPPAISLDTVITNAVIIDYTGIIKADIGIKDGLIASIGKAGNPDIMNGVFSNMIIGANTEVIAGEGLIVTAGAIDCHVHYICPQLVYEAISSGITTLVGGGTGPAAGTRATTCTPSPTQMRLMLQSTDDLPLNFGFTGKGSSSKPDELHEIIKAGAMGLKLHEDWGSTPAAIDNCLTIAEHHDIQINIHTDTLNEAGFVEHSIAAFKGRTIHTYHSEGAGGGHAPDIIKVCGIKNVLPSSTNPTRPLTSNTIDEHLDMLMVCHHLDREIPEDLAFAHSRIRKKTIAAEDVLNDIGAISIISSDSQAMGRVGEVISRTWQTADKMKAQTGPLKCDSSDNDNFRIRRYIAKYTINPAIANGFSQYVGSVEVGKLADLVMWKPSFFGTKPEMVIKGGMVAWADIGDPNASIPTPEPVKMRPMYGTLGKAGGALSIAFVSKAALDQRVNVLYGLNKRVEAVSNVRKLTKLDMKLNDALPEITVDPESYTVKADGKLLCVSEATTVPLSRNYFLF

T2 sequence (P81908 whole entry): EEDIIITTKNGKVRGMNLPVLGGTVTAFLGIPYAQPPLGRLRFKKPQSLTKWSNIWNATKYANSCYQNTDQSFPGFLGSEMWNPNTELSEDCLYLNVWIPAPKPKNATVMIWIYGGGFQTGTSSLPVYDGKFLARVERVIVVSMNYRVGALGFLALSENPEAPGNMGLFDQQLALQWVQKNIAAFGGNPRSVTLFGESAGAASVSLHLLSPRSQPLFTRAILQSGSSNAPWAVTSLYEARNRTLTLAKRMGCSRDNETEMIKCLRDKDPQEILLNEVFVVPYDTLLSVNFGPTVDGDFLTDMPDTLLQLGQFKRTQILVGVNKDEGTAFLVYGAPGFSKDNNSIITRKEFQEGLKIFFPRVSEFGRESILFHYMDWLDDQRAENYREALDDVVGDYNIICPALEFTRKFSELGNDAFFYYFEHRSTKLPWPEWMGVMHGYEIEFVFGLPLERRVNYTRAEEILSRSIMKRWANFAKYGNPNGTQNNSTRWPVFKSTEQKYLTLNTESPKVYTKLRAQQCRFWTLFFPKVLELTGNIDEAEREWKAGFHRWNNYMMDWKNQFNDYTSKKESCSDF
Protocol for Metal chelating assay: as §2, §3

C[C@H]1O[C@H](O[C@H]2[C@H](O)[C@@H](O)[C@@H](O[C@H]3[C@H](O)[C@@H](O)C(O)O[C@@H]3CO)O[C@@H]2CO)[C@H](O)[C@@H](O)[C@@H]1N[C@H]1C=C(CO)[C@@H](O)[C@H](O)[C@H]1O (stereo partly drawn) [Acarbose]
α-glucosidase Inhibition (%) (α-glucosidase): 56.70 ± 0.75%
inhibition at 200 µg/mL (α-amylase): 82.1 ± 0.27%

COc1ccc(O)c(C(C)(C)C)c1 [BHA, butylated hydroxyanisole]
β-Carotene-linoleic acid assay IC50 [1]: 1.50 ± 0.03 µg/mL
β-Carotene-linoleic acid assay Inhibition (%) [1]: 96.20 ± 0.28%
ABTS assay IC50 [2]: 12.70 ± 0.10 µg/mL
ABTS assay Inhibition (%) [2]: 88.93 ± 0.21%
CUPRAC assay Absorbance [3]: 2.45 ± 0.07
CUPRAC assay A0.50 [3]: 25.40 ± 0.42 µg/mL
DPPH assay IC50 [4]: 19.50 ± 0.30 µg/mL
DPPH assay Inhibition (%) [4]: 87.90 ± 0.44%

O=C(O)CN(CCN(CC(=O)O)CC(=O)O)CC(=O)O [EDTA, ethylenediaminetetraacetic acid]
Metal chelating assay IC50 (Metal chelating assay): 5.50 ± 0.25 µg/mL
Metal chelating assay Inhibition (%) (Metal chelating assay; at 200 µg/mL): 94.40 ± 0.35%

COc1ccc2c3c1O[C@H]1C[C@@H](O)C=C[C@@]31CCN(C)C2 [Galantamine, galantamine]
inhibition at 200 µg/mL (BChE): 79.43 ± 0.6%

O=c1cc(CO)occ1O [Kojic acid]
Tyrosinase inhibitory Inhibition (%) (tyrosinase): 83.54 ± 0.56%

NC(N)=S [Thiourea, thiourea]
Urease inhibitory IC50 (urease): 8.20 ± 0.36 µg/mL
Urease inhibitory Inhibition (%) (urease; at 200 µg/mL): 87.37 ± 0.52%

Cc1c(C)c2c(c(C)c1O)CC[C@@](C)(CCC[C@H](C)CCC[C@H](C)CCCC(C)C)O2 [α-Tocopherol, α-tocopherol]
β-Carotene-linoleic acid assay IC50 [1]: 2.10 ± 0.05 µg/mL
β-Carotene-linoleic acid assay Inhibition (%) [1]: 95.73 ± 0.44%
ABTS assay IC50 [2]: 34.75 ± 0.55 µg/mL
ABTS assay Inhibition (%) [2]: 83.63 ± 0.34%
CUPRAC assay Absorbance [3]: 0.88 ± 0.03
CUPRAC assay A0.50 [3]: 60.45 ± 0.30 µg/mL
DPPH assay IC50 [4]: 38.20 ± 0.50 µg/mL
DPPH assay Inhibition (%) [4]: 84.25 ± 0.36%
